Laboratory results from patent US6605595B1, “Avermectin derivatives” (The Kitasato Institute, priority 1999, dated 2003).

How the values were obtained:
Caenorhabditis elegans = test: Antiparasitic activity against Caenorhabditis elegans, 96 well microplate (MIC); type: in vivo; conditions: 20° C., observed after 24 and 48 hours
Excerpt: (§1) As model insects for simple determination of antiparasitic and insecticidal activities, those insects are desired which can be easily obtained and bred in laboratories, and have no pathogenicity to a human. Caenorhabditis elegans, an unparasitic eelworm widely used in experiments of genetics, was used as a typical steam worm, and Artemia salina used as feed for tropical fish and named Brine shrimp, was used instead of insects.
Escherichia. coli for the feed of Caenorhabditis elegans (mutant having uracil requirement) was inoculated in a seed medium for E. coli to which a small amount of uracil was added, and cultured with shaking at 27° C. for 1 day. A petri dish of 6 cm diameter was filled with 10 ml of an agar medium for eelworm proliferation, and the medium was solidified. Then 0.5 ml of the culture of E. coli was spread over the medium in the dish, and the dish was incubated at 37° C. to proliferate E. coli. A piece of the agar was collected with a platinum loop from a petri dish in which Caenorhabditis elegans successfully proliferated, and inoculated in petri dishes in which E. coli was proliferated. The petri dishes were incubated at 20° C. to proliferate Caenorhabditis elegans. Since the life of eelworm is about 2 weeks, subculture was carried out every once a week. The eelworms grown with spread on the surface of the petri dish after 3 to 5 days from subculture were used for the experiments.
The agar medium for eelworm proliferation was prepared by mixing the solutions in the following proportion: Solution A: 100 ml, Solution B: 0.1 ml, Solution C: 0.05 ml, Solution D: 0.1 ml and Solution E: 2.5 ml (without pH adjustment), and dispensing each 10 ml portion into petri dishes of 60×15 mm.
In distilled water, 2.0% of bact-trypton (DIFCO Co.), 0.55% of sodium chloride and 0.001% of uracil (SIGMA Co., pH 7.4) were dissolved, and the solution was sterilized in an autoclave at 121° C. for 20 minutes.
(§2) Each well of a 96 well microplate was filled with the solution of the test compound (methanol as a solvent), and the solvent was removed using a vacuum pump, then 250 μl of the assay medium was added to each wells (the assay medium was prepared by dissolving 7.5 mM sodium hydrogencarbonate, 7.5 mM potassium chloride, 7.5 mM calcium chloride dihydrate and 7.5 mM magnesium sulfate heptahydrate in distilled water and adding 0.01% of lecithin thereto), and then the microplate was shaken using a microplate mixer for 15 minutes. To each well, a few individuals of Caenorhabditis elegans were added by softly rubbing the surface of the agar using a toothpick, or a few individuals of Artemia salina were added together with 50 μl of the buffer. The microplate was incubated at 20° C., and then the insects were observed after 24 and 48 hours under a microscope (magnification of 40×). The results were compared to those obtained without addition of the test compound, and evaluated by 4 grades.
(§3) The evaluation results were shown by indications of 4 grades from 0 to 3.
(§4) 1: A little week movements
(§5) Of the 4 grades, Indications 3 and 2 were judged as effective, and Indications 1 and 0 as ineffective. In Table 9, the values for each compound are minimum inhibitory concentrations (MIC) which were required to give Indication 2 (or 3) for Caenorhabditis elegans or Artemia salina. In Table 9, Caenorhabditis elegans and Artemia salina are abbreviated as C.E. and A.S., respectively.

Artemia salina = test: Insecticidal model activity against Artemia salina (brine shrimp), 96 well microplate (MIC); type: in vivo; conditions: 20° C., observed after 24 and 48 hours
Excerpt: as §1
To a buffer for Artemia salina (obtained by dissolving 0.24% of Tris, 2.57% of sodium chloride, 0.47% of magnesium chloride, 0.07% of potassium chloride, 0.02% of sodium carbonate, 0.64% of magnesium sulfate and 0.11% of calcium chloride in distilled water and adjusting the pH to 7.1 with hydrochloric acid), dried eggs of Artemia salina [Tetra Brine Shrimp Eggs, Warner Lambert Co.] were added. The noprius larvae 1 or 2 days after hatching were used for the experiments.
as §2, §3, §4, §5

Heterakis spumosa = test: In vivo experiments with Heterakis spumosa in mice; parameters: key: 3 represents cure (no parasites detectable); 2 effective (<20% of parasites remaining); 1 trace effect (< of parasites remaining); 0 ineffective (>50% of parasites remaining); conditions: orally 4 times, mice infected with H. spumosa
Protocol: In vivo experiments with Heterakis spumosa
For the experiments male mice (strain Bor CFW, 25-30 g of body weight on receipt) were housed in Macrolon cages (3 mice per cage) and provided with water and SNIFF rat feed (10-mm pellets) ad libitum. Mice were infected with H. spumosa by oral application of 90 embryonated eggs. The eggs were obtained from female Heterakis. isolated from mouse colon 40 days after infection followed by additional three weeks incubation at 37° C. The mice were treated orally 4 times with the compounds at the dosages of 1, 0.5, 0.25, 0.1, 0.05 and 0.025 mg/kg between days 46 and 49 after infection. Compounds were suspended in Cremophor EL. Infected control mice served as untreated controls which only received Cremophor EL. Mice were killed eight days after treatment (i.e. on day 57 after infection) with carbon dioxide and cecum and colon were dissected. The number of worms which have resided in the cecum and colon were counted macroscopically. The ratios of the number of expelled worms in percent of the total number of worms was defined as level of the anthelmintic activity. Activity was evaluated on a scale 0-3 where 3 represents cure (no parasites detectable), 2 effective (<20% of parasites remaining), 1 trace effect (< of parasites remaining) and 0 ineffective (>50% of parasites remaining).

[1] = tested on: Third larval stages of Periplaneta americana; test: Test on cockroaches, immersion process; type: in vivo; conditions: immersion 60 seconds, time of reading not stated (2 and 24 hours, 7 days)
Protocol: Test on cockroached—Immersion process
Test animals: Third larval stages of Periplaneta americana
(§6) Solvent: Dimethylsulfoxide
20 mg of active compound are dissolved in one ml of dimethylsulfoxide. In order to prepare a suitable formulation the solution of active compound is diluted with water to the concentration required in each case.
20 ml of this preparation of active compound are pipetted into tubes (of a diameter of 1.5 cm and a height of 10 cm). 4 cockroach larvae are intoxicated with CO2 and transferred to a tube (of a diameter of 1.2 cm and a height of 9 cm) containing 3 holes (in the base and 5 cm below the upper rim). The tube is sealed with a stopper and kept at room temperature for 30 minutes until all of the cockroach larvae again display normal activity. The tube is immersed in the active compound formulation for 60 seconds, during which period all of the cockroach larvae are completely coverd. After the liquid has drained off the cockroach larvae are transferred to filter discs in cans made of PP (of a diameter of 9.7 cm and a height of 8 cm height).
After 2 and 24 hours and after 7 days the activity of the active compound formulation is determined. 100% means that all of the cockroach larvae have been destroyed; 0% means that none of the cockroach larvae have been destroyed.

Lucilia cuprina larvae = test: Blowfly larvae test / development-inhibiting activity; type: in vivo
Protocol: Blowfly larvae test/Development-inhibiting activity
Test animals: Lucilia cuprina larvae
as §6
20 mg of active compound are dissolved in one ml of dimethylsulfoxide. In order to prepare a suitable formulation the active compound solution is diluted with water to the concentration required in each case.
Approx. 20 Lucilia cuprina larvae are introduced into a test tube containing approx. 1 cm^3 of horse-meat and 0.5 ml of the active compound preparation to be tested. After 48 hours the activity of the active compound preparation is determined. The test tubes are transferred to beakers with a sand-covered base. After a further 2 days the test tubes are removed and the pupae counted.
The activity of the active compound preparation is assessed according to the number of flies which have hatched after 1.5 times the development period of an untreated control. 100% means that no flies have hatched: 0% means that all of the flies have hatched normally.

[2] = tested on: Adult Ctenocephalides felis; test: Test on cat fleas / oral absorption; type: in vivo; conditions: after 24 hours
Protocol: Test on cat fleas/oral absorption
Test animals: Adult Ctenocephalides felis
Solvent: Dimethylsulfoxide (DMSO)
20 μl of this formulation are added to 4 ml of citrated cow's blood and stirred.
20 starved adult fleas (of “Georgi” species of Ctenocephalides felis) are introduced into a chamber (of a diameter of 5 cm) which is sealed with gauze at the top and bottom. A metal cylinder, whose base is sealed with parafilm, is placed on the chamber. […] Whereas the blood is heated to 37° C. a temperature of 25° C. is adjusted in the region of the flea chambers. Controls are mixed with the same volume of DMSO without the addition of any of the compounds. The test are repeated three times.
After 24 hours the mortality is determined in %.

Nematospiroides dubius = test: In vivo experiments with Nematospiroides dubius in mice; parameters: key: 3 represents cure (no parasites detectable); 2 effective (<20% of parasites remaining); 1 trace effect (< of parasites remaining); 0 ineffective (>50% of parasites remaining); conditions: orally 4 times, mice infected with N. dubius larvae
[3] = 100 ppm in citrated cow's blood

## CCC(C)C1OC2(C=CC1C)CC1CC(CC=C(C)C(OC3CC(OC)C(OC4CC(OC)C(=CCOC5CCCCO5)C(C)O4)C(C)O3)C(C)C=CC=C3COC4C(O)C(C)=CC(C(=O)O1)C34O)O2 (stereo not shown) [Compound 31]
Caenorhabditis elegans
  C.E. minimum inhibitory concentration (MIC) required to give Indication 2 (or 3): 0.05 µg/mL
Artemia salina
  A.S. minimum inhibitory concentration (MIC) required to give Indication 2 (or 3): 0.01 µg/mL
Heterakis spumosa; 0.1 mg/kg
  anthelmintic activity score (scale 0-3): 2 (2 effective (<20% of parasites remaining))
Heterakis spumosa; 0.25 mg/kg
  anthelmintic activity score (scale 0-3): 2 (2 effective (<20% of parasites remaining))
Heterakis spumosa; 0.5 mg/kg
  anthelmintic activity score (scale 0-3): 3
Heterakis spumosa; 1 mg/kg
  anthelmintic activity score (scale 0-3): 3

## CCC(C)C1OC2(C=CC1C)CC1CC(CC=C(C)C(OC3CC(OC)C(OC4CC(OC)C(=CC=CC(=O)O)C(C)O4)C(C)O3)C(C)C=CC=C3COC4C(O)C(C)=CC(C(=O)O1)C34O)O2 (stereo not shown) [Compound 66]
[1]; 1 ppm
  activity (100% = all of the cockroach larvae destroyed): 75%
[1]; 10 ppm
  activity (100% = all of the cockroach larvae destroyed): 100%
[1]; 100 ppm
  activity (100% = all of the cockroach larvae destroyed): 100%

## CCC(C)C1OC2(C=CC1C)CC1CC(CC=C(C)C(OC3CC(OC)C(OC4CC(OC)C(=CC(=O)OC)C(C)O4)C(C)O3)C(C)C=CC=C3COC4C(O)C(C)=CC(C(=O)O1)C34O)O2 (stereo not shown) [Compound 7]
Caenorhabditis elegans
  C.E. minimum inhibitory concentration (MIC) required to give Indication 2 (or 3): 0.01 µg/mL
Artemia salina
  A.S. minimum inhibitory concentration (MIC) required to give Indication 2 (or 3): 0.002 µg/mL
Lucilia cuprina larvae; 1 ppm
  development-inhibiting activity (100% = no flies have hatched): 100%
Lucilia cuprina larvae; 10 ppm
  development-inhibiting activity (100% = no flies have hatched): 100%
Lucilia cuprina larvae; 100 ppm
  development-inhibiting activity (100% = no flies have hatched): 100%
[2]; 10 ppm in citrated cow's blood
  mortality of fleas: 61%
[2]; [3]
  mortality of fleas: 99%

## CCC(C)C1OC2(C=CC1C)CC1CC(CC=C(C)C(OC3CC(OC)C(OC4CC(OC)C(=CCOC(=O)c5cccnc5)C(C)O4)C(C)O3)C(C)C=CC=C3COC4C(O)C(C)=CC(C(=O)O1)C34O)O2 (stereo not shown) [Compound 21]
Caenorhabditis elegans
  C.E. minimum inhibitory concentration (MIC) required to give Indication 2 (or 3): 0.01 µg/mL
Artemia salina
  A.S. minimum inhibitory concentration (MIC) required to give Indication 2 (or 3): 0.002 µg/mL
Lucilia cuprina larvae; 1 ppm
  development-inhibiting activity (100% = no flies have hatched): 100%
Lucilia cuprina larvae; 10 ppm
  development-inhibiting activity (100% = no flies have hatched): 100%
Lucilia cuprina larvae; 100 ppm
  development-inhibiting activity (100% = no flies have hatched): 100%

## CCC(C)C1OC2(CC3CC(CC=C(C)C(OC4CC(OC)C(OC5CC(OC)C(=CC(=O)OC)C(C)O5)C(C)O4)C(C)C=CC=C4COC5C(O)C(C)=CC(C(=O)O3)C45O)O2)CC(O)C1C (stereo not shown) [Compound 78]
[1]; 1 ppm
  activity (100% = all of the cockroach larvae destroyed): 50%
[1]; 10 ppm
  activity (100% = all of the cockroach larvae destroyed): 50%
[1]; 100 ppm
  activity (100% = all of the cockroach larvae destroyed): 100%

## CCOC(=O)C=C1C(C)OC(OC2C(C)OC(OC3C(C)=CCC4CC(CC5(C=CC(C)C(C(C)CC)O5)O4)OC(=O)C4C=C(C)C(O)C5OCC(=CC=CC3C)C45O)CC2OC)CC1OC (stereo not shown) [Compound 2]
Caenorhabditis elegans
  C.E. minimum inhibitory concentration (MIC) required to give Indication 2 (or 3): 0.01 µg/mL
Artemia salina
  A.S. minimum inhibitory concentration (MIC) required to give Indication 2 (or 3): 0.01 µg/mL
Heterakis spumosa; 0.05 mg/kg
  anthelmintic activity score (scale 0-3): 2 (2 effective (<20% of parasites remaining))
Heterakis spumosa; 0.1 mg/kg
  anthelmintic activity score (scale 0-3): 3
Heterakis spumosa; 0.25 mg/kg
  anthelmintic activity score (scale 0-3): 3
Heterakis spumosa; 0.5 mg/kg
  anthelmintic activity score (scale 0-3): 3
Heterakis spumosa; 1 mg/kg
  anthelmintic activity score (scale 0-3): 3
[2]; 10 ppm in citrated cow's blood
  mortality of fleas: 50%
[2]; [3]
  mortality of fleas: 100%

## CCC(C)C1OC2(C=CC1C)CC1CC(CC=C(C)C(OC3CC(OC)C(OC4CC(OC)C(=CC(=O)O)C(C)O4)C(C)O3)C(C)C=CC=C3COC4C(=NO)C(C)=CC(C(=O)O1)C34O)O2 (stereo not shown) [Compound 58]
Nematospiroides dubius; 0.5 mg/kg
  anthelmintic activity score (scale 0-3): 3
Nematospiroides dubius; 1 mg/kg
  anthelmintic activity score (scale 0-3): 3
[2]; 10 ppm in citrated cow's blood
  mortality of fleas: 73%
[2]; [3]
  mortality of fleas: 100%
